In patent publication US8574563B2 (Bristol-Myers Squibb Company, priority 2006, dated 2013):
pEC50: −log10 of the molar value.

The compounds below were run on HCV 1b-377-neo replicon cells (assay: HCV replicon assay, HCV 1b-377-neo replicon cells (1b FRET)). Details: HCV 1b-377-neo replicon cells; HCV 1b genotype; read-out: EC50 range against HCV 1b (Table 2, Range).
Assay type: cell-based, Hepatitis C virus genotype 1b
Outline: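 Compounds were tested in genotype 1b subgenomic replicon cells carrying a neomycin marker, alongside a matched replicon line with an NS5A Y2065H substitution that confers resistance to a reference NS5A inhibitor.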

| Structure (SMILES) | pEC50 |
| --- | --- |
| CCN(CC)[C@@H](C(=O)N1CCC[C@H]1c1ncc(-c2ccc(-c3ccc(-c4cnc([C@@H]5CCCN5C(=O)[C@@H]5CCCO5)[nH]4)cc3)cc2)[nH]1)c1ccccc1 [Example 106, (1R)-N,N-diethyl-2-oxo-1-phenyl-2-((2S)-2-(5-(4′-(2-((2S)-1-((2S)-tetrahydro-2-furanylcarbonyl)-2-pyrrolidinyl)-1H-imidazol-5-yl)-4-biphenylyI)-1H-imidazol-2-yl)-1-pyrrolidinyl)ethanamine] | 9.00 to 12.00 |

Same assay, conditions: Hepatitis C virus, HCV 1b-377-neo replicon cells; HCV 1b genotype; read-out: EC50 range against HCV 1b (Table 2, Range)

| Structure (SMILES) | pEC50 |
| --- | --- |
| CN(C)[C@@H](C(=O)N1CCC[C@H]1c1ncc(-c2ccc(-c3ccc(-c4cnc([C@@H]5CCCN5C(=O)[C@H]5CCCO5)[nH]4)cc3)cc2)[nH]1)c1ccccc1Cl [Example 107-38, (1R)-1-(2-chloro-phenyl)-N,N-dimethyl-2-oxo-2-((2S)-2-(5-(4′-(2-((2S)-1-((2R)-tetrahydro-2-furanylcarbonyl)-2-pyrrolidinyl)-1H-imidazol-5-yl)-4-biphenylyl)-1H-imidazol-2-yl)-1-pyrrolidinyl) ethanamine] | 9.00 to 12.00 |
| CN(C)[C@@H](C(=O)N1CCC[C@H]1c1ncc(-c2ccc(-c3ccc(-c4cnc([C@@H]5CCCN5C(=O)[C@@H](c5ccccc5)N(C)C)[nH]4)cn3)cc2)[nH]1)c1ccccc1 [Example 132, (1R)-2-((2S)-2-(5-(6-(4-(2-((2S)-1-((2R)-2-(dimethylamino)-2-phenylacetyl)-2-pyrrolidinyl)-1H-imidazol-5-yl)phenyl)-3-pyridinyl)-1H-imidazol-2-yl)-1-pyrrolidinyl)-N,N-dimethyl-2-oxo-1-phenylethanamine] | 9.00 to 12.00 |
| COC(=O)N[C@@H](C(=O)N1CCC[C@H]1c1ncc(-c2cnc(-c3cnc(-c4cnc([C@@H]5CCCN5C(=O)[C@H](NC(=O)OC)c5ccccc5)[nH]4)cn3)cn2)[nH]1)c1ccccc1 [Example 153c-6, dimethyl (2,2′-bipyrazine-5,5′-diylbis(1H-imidazole-5,2-diyl(2S)-2,1-pyrrolidinediyl((1R)-2-oxo-1-phenyl-2,1-ethanediyl)))biscarbamate] | 7.00 to 9.00 |
| CCN(CC)[C@@H](C(=O)N1CCC[C@H]1c1ncc(-c2ccc(-c3ccc(-c4cnc([C@@H]5CCCN5C(=O)[C@@H](NC(=O)OC)C(C)C)[nH]4)cc3)cc2)[nH]1)c1ccccc1 [Example M58, methyl ((1S)-1-(((2S)-2-(5-(4′-(2-((2S)-1-((2R)-2-(diethylamino)-2-phenylacetyl)-2-pyrrolidinyl)-1H-imidazol-5-yl)-4-biphenylyl)-1H-imidazol-2-yl)-1-pyrrolidinyl)carbonyl)-2-methylpropyl)carbamate] | 7.00 to 9.00 |
| COC(=O)N[C@H](C(=O)N1CCC[C@H]1c1ncc(-c2cnc(-c3ccc(-c4[nH]c([C@@H]5CCCN5C(=O)[C@@H](NC(=O)OC)C5CC5)nc4C(F)(F)F)cc3)nc2)[nH]1)C1CC1 [Example J49, methyl ((1S)-1-cyclopropyl-2-((2S)-2-(5-(4-(5-(2-((2S)-1-((2S)-2-cyclopropyl-2-((methoxycarbonyl)amino)acetyl)-2-pyrrolidinyl)-1H-imidazol-5-yl)-2-pyrimidinyl)phenyl)-4-(trifluoromethyl)-1H-imidazol-2-yl)-l-pyrrolidinyl)-2-oxoethyl)carbamate] | 9.00 to 12.00 |
| O=C(CCN1CCCCC1)N1CCC[C@H]1c1ncc(-c2ccc(-c3ccc(-c4cnc([C@@H]5CCCN5C(=O)[C@@H](c5ccccc5)N5CCCCC5)[nH]4)cc3)cc2)[nH]1 [Example 107-7, 1-(3-oxo-3-((2S)-2-(5-(4′-(2-((2S)-1-((2R)-2-phenyl-2-(1-piperidinyl)acetyl)-2-pyrrolidinyl)-1H-imidazol-5-yl)-4-biphenylyl)-1H-imidazol-2-yl)-1-pyrrolidinyl)propyl)piperidine] | 9.00 to 12.00 |
| CCOC(=O)c1nc([C@@H]2CCCN2C(=O)[C@H](NC(=O)OC)c2ccccc2)[nH]c1-c1ccc(-c2ccc(-c3cnc([C@@H]4CCCN4C(=O)[C@H](NC(=O)OC)c4ccccc4)[nH]3)cc2)cc1 [Example J19, ethyl 2-((2S)-1-((2R)-2-((methoxycarbonyl)amino)-2-phenylacetyl)-2-pyrrolidinyl)-5-(4′-(2-((2S)-1-((2R)-2-((mcthoxycarbonyl)amino)-2-phenylacetyl)-2-pyrrolidinyl)-1H-imidazol-5-yl)-4-biphenylyl)-1H-imidazole-4-carboxylate] | 9.00 to 12.00 |
| COC(=O)N[C@H](C(=O)N1CCC[C@H]1c1nc(-c2ccc(-c3ccc(-c4[nH]c([C@@H]5CCCN5C(=O)[C@@H](NC(=O)OC)C(C)C)nc4C)cc3)cc2)c(C)[nH]1)C(C)C [Example E5l, methyl ((1S)-1-(((2S)-2-(4-(4′-(2-((2S)-1-((2S)-2-((methoxycarbonyl)amino)-3-methylbutanoyl)-2-pyrrolidinyl)-4-methyl-1H-imidazol-5-yl)-4-biphenylyl)-5-methyl-1H-imidazol-2-yl)-1-pyrrolidinyl)carbonyl)-2-methylpropyl)carbamate] | 9.00 to 12.00 |
| COC(=O)N[C@@H](C(=O)N1CCC[C@H]1c1ncc(-c2ccc(-c3ccc(-c4cnc([C@@H]5CCCN5C(=O)[C@@H](c5ccccc5)N5CCCCC5)[nH]4)cc3)cc2)[nH]1)c1ccccc1Cl [Example 28-3, methyl ((1R)-1-(2-chlorophenyl)-2-oxo-2-((2S)-2-(5-(4′-(2-((2S)-1-((2R)-2-phenyl-2-(1-piperidinyl)acetyl)-2-pyrrolidinyl)-1H-imidazol-5-yl)-4-biphenylyl)-1H-imidazol-2-yl)-1-pyrrolidinyl)ethyl)carbamate] | 9.00 to 12.00 |
| CN(C)[C@@H](C(=O)N1CCC[C@H]1c1ncc(-c2ccc(-c3ccc(-c4cnc([C@@H]5CCCN5C(=O)C5(c6ccccc6)CC5)[nH]4)cc3)cc2)[nH]1)c1ccccc1F [Example 107-34, (1R)-1-(2-fluorophenyl)-N,N-dimethyl-2-oxo-2-((2S)-2-(5-(4′-(2-((2S)-1-((1-phenylcyclopropyl)carbonyl)-2-pyr-rolidinyl)-1H-imidazol-5-yl)-4-biphenylyl)-1H-imidazol-2-yl)-1-pyrrolidinyl)ethanamine] | 9.00 to 12.00 |
| CC(=O)N[C@@H](C(=O)N1CCC[C@H]1c1ncc(-c2ccc(-c3ccc(-c4cnc([C@@H]5CCCN5C(=O)[C@H](NC(C)=O)c5ccccc5)[nH]4)cn3)cc2)[nH]1)c1ccccc1 [Example 139, N-((1R)-2-((2S)-2-(5-(6-(4-(2-((2S)-1-((2R)-2-acetamido-2-phenylacetyl)-2-pyrrolidinyl)-1H-imidazol-5-yl)phenyl)-3-pyridinyl)-1H-imidazol-2-yl)-1-pyrrolidinyl)-2-oxo-1-phenylethyl)acetamide] | 9.00 to 12.00 |
| COC(=O)N[C@@H](C(=O)N1CCC[C@H]1c1ncc(-c2ccc(-c3ccc(-c4cnc([C@@H]5CCCN5C(=O)[C@@H]5CCN(Cc6ccccc6)C5)[nH]4)cc3)cc2)[nH]1)c1ccccc1 [Example 84-17, methyl ((1R)-2-((2S)-2-(5-(4′-(2-((2S)-1-(((3R)-1-benzyl-3-pyrrolidinyl)carbonyl)-2-pyrrolidinyl)-1H-imidazol-5-yl)-4-biphenylyl)-1H-imidazol-2-yl)-1-pyrrolidinyl)-2-oxo-1-phenylethyl)carbamate] | 9.00 to 12.00 |
| COC(=O)N[C@@H](C(=O)N1CCC[C@H]1c1ncc(-c2ccc(-c3ccc(-c4cnc([C@@H]5CCCN5C(=O)[C@@](OC)(c5ccccc5)C(F)(F)F)[nH]4)cc3)cc2)[nH]1)c1ccccc1 [Example 84-81, methyl ((1R)-2-oxo-1-phenyl-2-((2S)-2-(5-(4′-(2-((2S)-1-((2S)-3,3,3-trifluoro-2-methoxy-2-phenylpropanoyl)-2-pyrrolidinyl)-1H-imidazol-5-yl)-4-biphenylyl)-1H-imidazol-2-yl)-1-pyrrolidinyl)ethyl)carbamate] | 9.00 to 12.00 |
| COC(=O)N[C@H](C(=O)N1CCC[C@H]1c1ncc(-c2ccc(-c3ccc(-c4cnc([C@@H]5CCCN5C(=O)[C@@H](NC(=O)OC)[C@@H](C)O)[nH]4)cc3)cc2)[nH]1)[C@@H](C)O [Example M15, methyl ((1S,2R)-2-hydroxy-1-(((2S)-2-(5-(4′-(2-((2S)-1-((2S,3R)-3-hydroxy-2-((methoxycarbonyl)amino)butanoyl)-2-pyrrolidinyl)-1H-imidazol-5-yl)-4-biphenylyl)-1H-imidazol-2-yl)-1-pyrrolidinyl)carbonyl)propyl)carbamate] | 6.00 to 7.00 |
| COC(=O)N[C@@H](C(=O)N1CC2(CC2)C[C@H]1c1nc(-c2ccc(-c3ccc(-c4c[nH]c([C@@H]5CC6(CC6)CN5C(=O)[C@H](NC(=O)OC)c5ccccc5)n4)cc3)cc2)c[nH]1)c1ccccc1 [Example M150, dimethyl (4,4′-biphenyldiylbis(1H-imidazole-4,2-diyl(6S)-5-azaspiro[2.4]heptane-6,5-diyl((1R)-2-oxo-1-phenyl-2,1-ethanediyl)))biscarbamate] | 9.00 to 12.00 |
| COC(=O)N[C@@H](C(=O)N[C@@H](C)c1ncc(-c2ccc(-c3ccc(-c4cnc([C@@H]5CCCN5C(=O)[C@H](NC(=O)OC)c5ccccc5)[nH]4)cc3)nc2)[nH]1)c1ccccc1 [Example 152j-22, methyl ((1R)-2-((2S)-2-(5-(4-(5-(2-((1S)-1-(((2R)-2-((methoxycarbonyl)amino)-2-phenylacetyl)amino)ethyl)-1H-imidazol-5-yl)-2-pyridinyl)phenyl)-1H-imidazol-2-yl)-1-pyrrolidinyl)-2-oxo-1-phenylethyl)carbamate] | 9.00 to 12.00 |
| O=C(OCc1ccccc1)c1nc([C@@H]2CCCN2C(=O)[C@@H](c2ccccc2)N2CCCCC2)[nH]c1-c1ccc(-c2ccc(-c3cnc([C@@H]4CCCN4C(=O)[C@@H](c4ccccc4)N4CCCCC4)[nH]3)cc2)cc1 [Example J23, benzyl 2-((2S)-1-((2R)-2-phenyl-2-(1-piperidinyl)acetyl)-2-pyrrolidinyl)-5-(4′-(2-((2S)-1-((2R)-2-phenyl-2-(1-piperidinyl)acetyl)-2-pyrrolidinyl)-1H-imidazol-5-yl)-4-biphenylyl)-1H-imidazole-4-carboxylate] | 9.00 to 12.00 |
